In patent publication US10551384B2, “MTOR kinase mutations and methods of use thereof” (RUTGERS, THE STATE UNIVERSITY OF NEW JERSEY, priority 2016, dated 2020):
“Also recorded” adds a separate entry of the source. Like-named read-outs stand apart in the source and are kept apart here.

Columns and labels:
TOR2-mTOR L2185D mutant = experiment: Yeast spotting assay for drug resistance, TOR2-mTOR L2185D; assay type: cell-based, S. cerevisiae; conditions: 37° C., with amphotericin B
Text: (§1) FIGS. 4A-C. […] (FIG. 4A) Scheme of a yeast-based screen for drug-resistant mutations in mTOR kinase domain. mTOR kinase domain is amplified by error-prone PCR to generate randomized mutations, which is then recombined in frame into the TOR2-mTOR plasmid by gap-repair in tort-dg cells, and is selected on SC-leucine minus plates. Replica plating is then made onto SC-leucine plates containing DMSO or mTOR kinase inhibitor for selection of drug resistant clones. (FIG. 4B) tor2-dg cells expressing WT or mutant TOR2-mTOR were serially diluted by 10-fold and assayed for sensitivity to different mTOR kinase inhibitors in the presence of amphotericin B. Vector and TOR2 were used as controls. Drug resistant assay was performed at 37° C. in the presence of amphotericin B (except OSI-027). (FIG. 4C) Systematic mutational analysis of L2185 on drug resistance. tort-dg cells expressing WT or mutant TOR2-mTOR carrying all possible mutations at L2185 were serially diluted by 10-fold and tested for sensitivity to different mTOR kinase inhibitors at 37° C.
(§2) To enhance yeast cell permeability, log phase W303 tort-dg cells were spread evenly on SD-Leu agarose plates. After drying, small sterile filter discs were placed on the surface and 5 μl of indicated mTOR inhibitors or DMSO were applied to each disc with or without adding 5 μl of amphotericin B (10 μM), miconazole (50 μM) or caspofungin (50 μM). Plates were incubated at 37° C. for 3 day. Drug resistance profiles of TOR2-mTOR mutant cells were determined by the spotting assay. For this assay, 10-fold serial dilutions of cells were spotted on SD-leu plates in the presence of indicated mTOR inhibitors with or without amphotericin B (200 nM) and incubated at 37° C. for 3 day.

TOR2-mTOR L2185C mutant = experiment: Yeast spotting assay for drug resistance, TOR2-mTOR L2185C; assay type: cell-based, S. cerevisiae
Text: as §1, §2

[1] = test system: mTORC1 and mTORC2 signaling in SW480 mTOR(L2185A) cells; experiment: mTORC1/mTORC2 signaling immunoblot in SW480 cells carrying L2185A mutant mTOR; assay type: cell-based, human; conditions: various concentrations, 1 hr, immunoblot of P-S6K, P-4E-BP1, P-AKT
Experimental: (§3) (FIG. 5A) SW480 cells carrying homozygous WT mTOR or L2185A mutant alleles were treated with various concentrations of AZD8055, INK-128, OSI-027 and PP242 for 2 day. Growth of SW480 cells was measured by SRB assay. Data represent means±SD in three independent experiments. (FIG. 5B) SW480 cells carrying homozygous WT and L2185A mutant mTOR allele were treated with a single dose of AZD8055 (100 nM), INK-128 (100 nM), OSI-027 (6,000 nM), and PP242 (2,000 nM) for different times. Cell growth was measured by SRB assay. The drug carrier DMSO was used as a control. Data represent means±SD in three independent experiments. (FIG. 5C) SW480 cells carrying homozygous WT and L2185A mutant mTOR were treated with various concentrations of INK-128, OSI-027, AZD8055 and PP242 for 1 hr. The effect on the level of P-S6K, S6K, P-4E-BP1, 4EB-P1, P-AKT and AKT was analyzed by immunoblot. […] The growth of SW480 cells was measured by SRB assay. Data represent means±SD in three independent experiments.
(§4) Antibodies against tubulin, S6K, phospho-S6K (Thr389), 4E-BP1, phospho-4E-BP1 (Thr37/46), Akt, phospho-Akt (Thr308), and phospho-Akt (Ser473) were purchased from Cell Signaling Technology. […] For drug sensitivity test, cancer cells were seeded in 96-well plates at a density of 2,000 cells per well. 24 hours later, different concentrations of mTOR inhibitors were added in quadruplicate. Cell growth was measured by the sulforhodamine B (SRB) assay as previously described (Vichai, V., and Kirtikara, K. (2006). Nature protocols 1, 1112-1116).

[2] = test system: SW480 colorectal cancer cells carrying L2185A mutant mTOR alleles; experiment: SRB growth assay of SW480 cells carrying L2185A mutant mTOR; assay type: cell-based, human; conditions: various concentrations, 2 day
Experimental: as §3
Cancer cell lines were maintained in DMEM or RPMI 1640, supplemented with 10% fetal bovine serum (Invitrogen) and 1% penicillin/streptomycin (Invitrogen). CRISPR/cas9 technology was used to engineer mutant mTOR allele in SW480 colorectal and H460 lung cancer cells. Briefly, The target sequence for mTOR, […] (SEQ ID NO: 3 was designed through the online tool at crispr.mit.edu, and cloned into pSPCas9(BB)-2A-GFP vector (PX458 in Addgene). Genomic mTOR mutation was engineered using a protocol as described (Ran, et al. (2013). Nature protocols 8, 2281-2308) and was confirmed by targeted sequencing.
as §4

TOR2-mTOR L2185G mutant = experiment: Yeast spotting assay for drug resistance, TOR2-mTOR L2185G; assay type: cell-based, S. cerevisiae; conditions: 37° C., with amphotericin B
Text: as §1, §2

TOR2-mTOR L2185N mutant = experiment: Yeast spotting assay for drug resistance, TOR2-mTOR L2185N; assay type: cell-based, S. cerevisiae; conditions: 37° C., with amphotericin B
Text: as §1, §2

TOR2-mTOR L2185A mutant = experiment: Yeast spotting assay for drug resistance, TOR2-mTOR L2185A; assay type: cell-based, S. cerevisiae
Text: as §1, §2

[3] = target: T1, tor2-dg cells expressing TOR2-mTOR (UniProt P32600+P42345, A1929L/A1944S/A1986S/A2056E/A2073S/C1999R/C2085L/C2133A/D1912T/D1918E/D1933G/D1947H/D2096N/DUP2140-2140/E1921Q/E2000I/E2014H/E2032D/E2033D/E2049A/E2059K/E2080D/G1897S/G1954S/G2046K/G2092K/H1915G/H1958L/H1988Q/H2028Y/H2055Y/H2106N/I1939L/I1957L/I1964L/I1973V/I2021V/K1928N/K1993S/K1996E/K2045E/K2066R/K2087N/K2095S/L1923M/L1952I/L1956S/L1995I/L2037Q/L2103I/M2010E/M2011L/M2026Q/M2058L/M2079N/M2089K/M2132S/N1898S/N1899S/N1920T/N1989K/N1992L/N1997K/N2003P/N2071Q/N2093D/P1951Q/Q1937E/Q1959S/Q2007D/Q2063E/Q2072N/Q2082Y/R1890H/R1896E/R1950N/R1966K/R2042H/R2086M/R2110K/R2134H/S1980I/S2112G/S2120T/T1903A/T1948Q/T1962S/T1977M/T1983E/T1984S/T1985L/T2004V/T2068I/T2098N/T2119Q/V1906L/V1919A/V1924H/V1927F/V2019M/V2044T/V2050A/W1916I/Y1913F/Y1967A/Y2038F/Y2074F/Y2125H); experiment: Disc halo assay of tor2-dg cells expressing TOR2-mTOR, with or without antifungal permeability enhancers; assay type: cell-based, S. cerevisiae; conditions: filter discs supplemented with amphotericin B (10 μM), miconazole (50 μM) or caspofungin (50 μM); 37° C., 3 day
T1 construct: fused in frame with mTOR kinase domain (2140-2549 aa); yeast TOR2 N-terminus (1-2080 aa); expressed in transfected cells; host or cells: S. cerevisiae W303 tor2-dg, centromeric plasmid derived from pML40-TOR2
T1 sequence (P32600+P42345 fused with the stated changes): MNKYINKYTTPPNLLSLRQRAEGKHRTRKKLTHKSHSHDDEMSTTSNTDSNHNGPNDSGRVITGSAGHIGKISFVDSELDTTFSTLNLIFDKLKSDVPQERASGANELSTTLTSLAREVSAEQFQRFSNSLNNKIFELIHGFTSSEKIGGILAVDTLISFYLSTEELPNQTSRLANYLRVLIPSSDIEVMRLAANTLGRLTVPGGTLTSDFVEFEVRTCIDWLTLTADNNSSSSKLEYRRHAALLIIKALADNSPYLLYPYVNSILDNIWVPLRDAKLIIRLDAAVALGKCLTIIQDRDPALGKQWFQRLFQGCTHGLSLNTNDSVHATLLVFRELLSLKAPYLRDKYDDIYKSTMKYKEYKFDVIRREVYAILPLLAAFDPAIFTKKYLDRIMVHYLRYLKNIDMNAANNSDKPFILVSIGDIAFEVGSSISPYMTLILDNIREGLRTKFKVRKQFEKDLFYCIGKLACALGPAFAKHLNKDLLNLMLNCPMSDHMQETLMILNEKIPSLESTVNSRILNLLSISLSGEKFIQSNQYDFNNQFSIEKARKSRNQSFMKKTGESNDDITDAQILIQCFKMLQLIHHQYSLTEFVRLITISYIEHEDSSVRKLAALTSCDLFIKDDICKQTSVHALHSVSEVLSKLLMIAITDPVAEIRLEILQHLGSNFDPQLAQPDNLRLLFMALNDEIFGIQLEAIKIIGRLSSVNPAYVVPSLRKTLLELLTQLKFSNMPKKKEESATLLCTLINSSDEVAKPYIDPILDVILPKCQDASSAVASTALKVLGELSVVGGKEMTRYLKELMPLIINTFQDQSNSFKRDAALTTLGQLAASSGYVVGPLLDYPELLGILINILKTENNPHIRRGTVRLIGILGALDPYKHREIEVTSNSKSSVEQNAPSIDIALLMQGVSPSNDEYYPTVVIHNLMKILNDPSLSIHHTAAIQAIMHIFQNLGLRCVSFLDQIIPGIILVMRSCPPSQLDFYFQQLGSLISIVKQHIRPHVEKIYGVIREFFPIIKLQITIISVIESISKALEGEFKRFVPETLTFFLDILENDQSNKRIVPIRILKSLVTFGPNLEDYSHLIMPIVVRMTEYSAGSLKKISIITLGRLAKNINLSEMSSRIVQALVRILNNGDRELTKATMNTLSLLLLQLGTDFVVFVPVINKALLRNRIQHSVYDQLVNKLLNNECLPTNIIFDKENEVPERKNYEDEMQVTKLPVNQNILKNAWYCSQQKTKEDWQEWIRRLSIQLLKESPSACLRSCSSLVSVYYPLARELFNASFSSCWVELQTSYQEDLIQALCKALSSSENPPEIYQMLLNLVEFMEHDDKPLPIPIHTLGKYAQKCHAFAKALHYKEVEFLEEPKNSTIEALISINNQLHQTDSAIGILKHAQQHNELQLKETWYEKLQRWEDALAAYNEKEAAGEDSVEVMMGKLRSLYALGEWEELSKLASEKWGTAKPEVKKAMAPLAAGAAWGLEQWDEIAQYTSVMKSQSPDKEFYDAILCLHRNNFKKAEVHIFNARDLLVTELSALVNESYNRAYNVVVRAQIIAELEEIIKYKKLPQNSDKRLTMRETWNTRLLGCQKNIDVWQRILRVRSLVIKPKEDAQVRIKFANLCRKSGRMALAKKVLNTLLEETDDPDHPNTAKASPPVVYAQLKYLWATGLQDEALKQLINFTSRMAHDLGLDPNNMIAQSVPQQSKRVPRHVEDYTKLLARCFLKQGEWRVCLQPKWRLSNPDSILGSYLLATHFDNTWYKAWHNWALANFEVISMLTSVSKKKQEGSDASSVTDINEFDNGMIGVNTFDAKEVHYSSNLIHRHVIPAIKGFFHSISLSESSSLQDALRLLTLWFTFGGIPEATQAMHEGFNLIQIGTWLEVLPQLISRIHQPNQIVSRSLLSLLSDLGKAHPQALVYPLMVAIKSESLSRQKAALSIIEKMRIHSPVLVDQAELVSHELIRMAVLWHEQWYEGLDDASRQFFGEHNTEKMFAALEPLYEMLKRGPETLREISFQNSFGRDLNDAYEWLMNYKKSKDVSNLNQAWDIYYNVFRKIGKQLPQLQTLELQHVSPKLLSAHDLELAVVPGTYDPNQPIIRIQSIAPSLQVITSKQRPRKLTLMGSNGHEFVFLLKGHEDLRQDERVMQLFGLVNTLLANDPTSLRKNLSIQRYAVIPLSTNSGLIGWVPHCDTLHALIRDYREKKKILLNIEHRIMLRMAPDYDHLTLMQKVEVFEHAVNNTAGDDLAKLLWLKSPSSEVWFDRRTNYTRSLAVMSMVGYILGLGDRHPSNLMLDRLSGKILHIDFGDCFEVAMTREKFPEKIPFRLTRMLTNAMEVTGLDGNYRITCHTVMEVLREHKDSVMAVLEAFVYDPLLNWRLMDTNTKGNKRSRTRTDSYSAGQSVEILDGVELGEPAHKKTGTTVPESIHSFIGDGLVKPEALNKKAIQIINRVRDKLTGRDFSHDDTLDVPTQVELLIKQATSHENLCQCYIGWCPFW
T1 sequence (P41318 whole entry partner): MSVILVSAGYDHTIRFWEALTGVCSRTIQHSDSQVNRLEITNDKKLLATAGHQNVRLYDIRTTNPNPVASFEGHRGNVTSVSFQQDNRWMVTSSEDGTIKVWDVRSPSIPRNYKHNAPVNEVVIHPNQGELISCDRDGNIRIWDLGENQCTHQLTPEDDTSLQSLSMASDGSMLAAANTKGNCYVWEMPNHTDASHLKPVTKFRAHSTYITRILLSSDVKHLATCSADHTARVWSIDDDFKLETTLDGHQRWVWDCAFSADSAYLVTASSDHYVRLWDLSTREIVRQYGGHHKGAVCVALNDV
Experimental: FIGS. 2A-C. Enhancement of yeast cell permeability to structurally diverse mTOR kinase inhibitors by amphotericin B. (FIG. 2A) tor2-dg cells expressing TOR2-mTOR were spread on synthetic complete (SC)-leucine plate and tested for drug sensitivity by disc halo assay using filter discs containing different mTOR kinase inhibitors supplemented with the drug carrier DMSO or amphotericin B (10 μM). (FIG. 2B) Similar to FIG. 2A except the filter discs were supplemented with miconazole (50 μM). (FIG. 2C) Similar to FIG. 2A except the filter discs were supplemented with caspofungin (50 μM).
as §2

[4] = 37° C., amphotericin B present (except OSI-027)

Question: For `COc1ccc(-c2ccc3c(N4CCOC[C@@H]4C)nc(N4CCOC[C@@H]4C)nc3n2)cc1CO` [AZD8055], which “drug resistance of TOR2-mTOR L2185D mutant yeast” value (TOR2-mTOR L2185D mutant) is on record?
Answer: The value was “moderately resistant”.

Question: What about the “drug resistance/sensitivity of TOR2-mTOR L2185C mutant yeast” value (TOR2-mTOR L2185C mutant; [4]) of the same molecule?
Answer: Its value is “confer resistance; also recorded: conferring resistance”.

Question: And the “drug resistance of mTORC1 and mTORC2 signaling, SW480 L2185A vs WT” value [1]?
Answer: The value was “drug-resistant signaling by both mTORC1 and mTORC2”.

Question: And the “drug resistance/sensitivity of cell growth, SW480 L2185A vs WT” value [2]?
Answer: Its value is “confers resistance”.

Question: And the “drug resistance of TOR2-mTOR L2185G mutant yeast” value (TOR2-mTOR L2185G mutant)?
Answer: Its value is “moderately resistant”.

Question: What about the “drug resistance of TOR2-mTOR L2185N mutant yeast” value (TOR2-mTOR L2185N mutant) of the same molecule?
Answer: Its value is “moderately resistant”.

Question: What about the “drug resistance/sensitivity of TOR2-mTOR L2185A mutant yeast” value (TOR2-mTOR L2185A mutant; [4]) of the same molecule?
Answer: Its value is “confer resistance; also recorded: conferring resistance”.

Question: For `C[C@@H]1[C@H](O)[C@@H](C)/C=C/C=C/C=C/C=C/C=C/C=C/C=C/[C@H](O[C@@H]2O[C@H](C)[C@@H](O)[C@H](N)[C@@H]2O)C[C@@H]2O[C@](O)(C[C@@H](O)C[C@@H](O)[C@H](O)CC[C@@H](O)C[C@@H](O)CC(=O)O[C@H]1C)C[C@H](O)[C@H]2C(=O)O` [Amphotericin B], which “effect of antifungal drug on yeast sensitivity to mTOR kinase inhibitors” value (“effect … to mTOR kinase inhibitors” below) [3] is on record?
Answer: The value was “increases yeast sensitivity to most of mTOR kinase inhibitors”.

Question: What does the source list for `COc1ccc(-c2cc3c(C)nc(N)nc3n([C@H]3CC[C@H](OCCO)CC3)c2=O)cn1` [PF-04691502]?
Answer: drug resistance of TOR2-mTOR L2185D mutant yeast (TOR2-mTOR L2185D mutant): moderately resistant; drug resistance/sensitivity of TOR2-mTOR L2185C mutant yeast (TOR2-mTOR L2185C mutant; [4]): confer resistance; also recorded: conferring resistance; drug resistance/sensitivity of cell growth, SW480 L2185A vs WT [2]: still sensitive; drug resistance of TOR2-mTOR L2185G mutant yeast (TOR2-mTOR L2185G mutant): moderately resistant; drug resistance of TOR2-mTOR L2185N mutant yeast (TOR2-mTOR L2185N mutant): moderately resistant; drug resistance/sensitivity of TOR2-mTOR L2185A mutant yeast (TOR2-mTOR L2185A mutant; [4]): confers resistance; also recorded: conferring resistance

Question: With `CN(C)C1CCN(C(=O)c2ccc(NC(=O)Nc3ccc(-c4nc(N5CCOCC5)nc(N5CCOCC5)n4)cc3)cc2)CC1` [PKI-587] as the molecule, how does the “drug resistance of TOR2-mTOR L2185D mutant yeast” value (TOR2-mTOR L2185D mutant) read?
Answer: The value was “moderately resistant”.

Question: And the “drug resistance/sensitivity of TOR2-mTOR L2185C mutant yeast” value (TOR2-mTOR L2185C mutant)?
Answer: The value was “conferring resistance”.

Question: What about the “drug resistance of TOR2-mTOR L2185G mutant yeast” value (TOR2-mTOR L2185G mutant) of the same molecule?
Answer: The value was “moderately resistant”.

Question: What about the “drug resistance of TOR2-mTOR L2185N mutant yeast” value (TOR2-mTOR L2185N mutant) of the same molecule?
Answer: Its value is “moderately resistant”.

Question: What about the “drug resistance/sensitivity of TOR2-mTOR L2185A mutant yeast” value (TOR2-mTOR L2185A mutant) of the same molecule?
Answer: Its value is “conferring resistance”.

Question: What does the source list for `CC(C)n1nc(-c2cc3cc(O)ccc3[nH]2)c2c(N)ncnc21` [PP242]?
Answer: drug resistance of mTORC1 and mTORC2 signaling, SW480 L2185A vs WT [1]: drug-resistant signaling by both mTORC1 and mTORC2; drug resistance/sensitivity of cell growth, SW480 L2185A vs WT [2]: confers resistance

Question: `CC[C@H](C)C[C@H](C)CCCCCCCCC(=O)N[C@H]1C[C@@H](O)[C@@H](NCCN)NC(=O)[C@@H]2[C@@H](O)CCN2C(=O)[C@H]([C@H](O)CCN)NC(=O)[C@H]([C@H](O)[C@@H](O)c2ccc(O)cc2)NC(=O)[C@@H]2C[C@@H](O)CN2C(=O)[C@H]([C@@H](C)O)NC1=O` [caspofungin] was tested. Which “effect … to mTOR kinase inhibitors” value [3] did it give?
Answer: The value was “fail to do so”.

Question: `Clc1ccc(COC(Cn2ccnc2)c2ccc(Cl)cc2Cl)c(Cl)c1` (centres unmarked) [miconazole] was tested. Which “effect … to mTOR kinase inhibitors” value [3] did it give?
Answer: The value was “fail to do so”.
